Assay results as given in DBAASP.
Values after ≈ are worked out from the molar mass of the structure shown. Values joined by “and” are separate entries in the source; they are usually repeats but may differ in a detail not shown here. Identical values can stand only once.

Assays:
Test in all cases: ≥ marks a high value that may be exact or a test limit, other limits are often not marked, values filed in µg/mL are converted to µM
[1] = test system: Escherichia coli O157:H7 ATCC 43895
[2] = test system: Candida albicans ATCC 10231
[3] = test system: Bacillus subtilis ATCC 23857
[4] = test system: Escherichia coli ATCC 25922
[5] = test system: Staphylococcus aureus ATCC 9144
Bacillus megaterium = test system: Bacillus megaterium
[6] = test system: Pseudomonas aeruginosa ATCC 27853
[7] = test system: Corynebacterium glutamicum ATCC 13032
Micrococcus luteus = test system: Micrococcus luteus
Aureobasidium pullulans = test system: Aureobasidium pullulans
Escherichia coli SBS 363 = test system: Escherichia coli SBS 363
[8] = test system: Staphylococcus aureus ATCC 29213
[9] = test system: Staphylococcus aureus UAMS-1
Escherichia coli DC2 = test system: Escherichia coli DC2
Staphylococcus aureus = test system: Staphylococcus aureus
Escherichia coli K-12 = test system: Escherichia coli K-12
[10] = test system: Escherichia coli JCM 1649
Salmonella typhimurium = test system: Salmonella typhimurium
[11] = test system: Vibrio parahaemolyticus Vp+1
[12] = test system: Photobacterium damselae subsp. piscicida Sp 9587
[13] = test system: Vibrio anguillarum NCIMB 829
[14] = test system: Staphylococcus aureus IAM 1011
[15] = test system: Aeromonas salmonicida NCIMB 1102
[16] = test system: Bacillus subtilis IAM 1026
[17] = test system: Shewanella putrefaciens IAM 1509
[18] = test system: Enterococcus faecalis ATCC 29212
[19] = test system: Salmonella enterica subsp. enterica serovar Typhimurium ATCC 14028s
[20] = test system: Pseudomonas aeruginosa K799
Escherichia coli UB1005 = test system: Escherichia coli UB1005
[21] = test system: Staphylococcus epidermidis C621
[22] = test system: Staphylococcus aureus ATCC 25923

## CC(C)C[C@H](NC(=O)[C@H](C)N)C(=O)N[C@@H](Cc1c[nH]c2ccccc12)C(=O)N[C@@H](CCCCN)C(=O)N[C@H](C(=O)N[C@@H](CC(C)C)C(=O)N[C@@H](CC(C)C)C(=O)N[C@@H](CCCCN)C(=O)N[C@@H](CCCCN)C(=O)N[C@H](C(=O)N[C@@H](CC(C)C)C(=O)N[C@@H](CCCCN)C(=O)N[C@@H](C)C(=O)N[C@@H](C)C(=O)N[C@@H](C)C(=O)N[C@@H](CCCCN)C(=O)N[C@@H](C)C(=O)N[C@@H](C)C(=O)N[C@@H](CC(C)C)C(=O)N[C@@H](CCCCN)C(=O)N[C@@H](C)C(=O)N[C@H](C(=O)N[C@@H](CC(C)C)C(=O)N[C@H](C(=O)NCC(=O)N[C@@H](C)C(=O)N[C@@H](CC(N)=O)C(=O)N[C@@H](C)C(N)=O)C(C)C)C(C)C)C(C)C)[C@@H](C)O [ALWKTLLKKVLKAAAKAALKAVLVGANA]
[1]
  MIC: 8 µM (≈ 22.9 µg/mL)

## C[C@H](NC(=O)[C@H](CCCCN)NC(=O)[C@H](Cc1c[nH]c2ccccc12)NC(=O)CNC(=O)CNC(=O)[C@@H]1CCCN1C(=O)[C@H](CCCCN)NC(=O)[C@H](CCCCN)NC(=O)CN)C(=O)N[C@@H](CCCCN)C(N)=O [GKKPGGWKAK]
[2]
  MIC: > 237 µM
[3]
  MIC: ≥ 237 µM
[4]
  MIC: > 237 µM
[5]
  MIC: ≥ 237 µM
Bacillus megaterium
  MIC: ≥ 237 µM
[6]
  MIC: > 237 µM
[7]
  MIC: ≥ 237 µM
Micrococcus luteus
  MIC: ≥ 237 µM
Aureobasidium pullulans
  MIC: ≥ 237 µM

## C[C@H](NC(=O)[C@H](CCCCN)NC(=O)[C@H](Cc1c[nH]c2ccccc12)NC(=O)CNC(=O)CNC(=O)[C@H](Cc1c[nH]c2ccccc12)NC(=O)[C@H](CCCCN)NC(=O)[C@H](CCCCN)NC(=O)CN)C(=O)N[C@@H](CCCCN)C(N)=O [GKKWGGWKAK]
[2]
  MIC: 109 µM (≈ 125 µg/mL)
[3]
  MIC: ≥ 109 µM
[4]
  MIC: > 218 µM
[5]
  MIC: ≥ 218 µM
Bacillus megaterium
  MIC: 3.41 µM (≈ 3.9 µg/mL)
[6]
  MIC: > 218 µM
[7]
  MIC: 27.3 µM (≈ 31.3 µg/mL)
Micrococcus luteus
  MIC: ≥ 218 µM
Aureobasidium pullulans
  MIC: ≥ 54.6 µM

## CC(C)C[C@H](NC(=O)CN)C(=O)N[C@@H](Cc1ccccc1)C(=O)N[C@@H](CCCCN)C(=O)NCC(=O)N[C@@H](CCCCN)C(=O)N[C@@H](CCCCN)C(=O)N[C@@H](CCCCN)C(=O)N[C@@H](CC(N)=O)C(=O)N[C@@H](CCCCN)C(=O)N[C@@H](CCCCN)C(=O)N[C@H](C(=O)N[C@@H](CCCCN)C(N)=O)[C@@H](C)O [GLFKGKKKNKKTK]
[4]
  MIC: > 250 µM
Escherichia coli SBS 363
  MIC: ≥ 250 µM
[8]
  MIC: > 250 µM

## CC[C@H](C)[C@H](NC(=O)[C@H](CCCCN)NC(=O)[C@H](CCC(=O)O)NC(=O)[C@H](CCCCN)NC(=O)[C@@H](NC(=O)[C@H](CCCCN)NC(=O)[C@H](CCCN=C(N)N)NC(=O)[C@H](Cc1ccccc1)NC(=O)[C@H](Cc1ccccc1)NC(=O)[C@H](CC(=O)O)NC(=O)CNC(=O)[C@H](CC(C)C)NC(=O)[C@@H](N)CC(C)C)C(C)C)C(=O)NCC(=O)N[C@@H](CCCCN)C(=O)N[C@@H](CCC(=O)O)C(=O)N[C@@H](Cc1ccccc1)C(=O)N[C@@H](CCCCN)C(=O)N[C@@H](CCCN=C(N)N)C(=O)N[C@H](C(=O)N[C@H](C(=O)N[C@@H](CCC(N)=O)C(=O)N[C@@H](CCCN=C(N)N)C(=O)O)C(C)C)[C@@H](C)CC [LLGDFFRKVKEKIGKEFKRIVQR]
[9]
  MIC: ≥ 160 µM
Escherichia coli DC2
  MIC: 2 µM (≈ 5.67 µg/mL)
Staphylococcus aureus
  MIC: > 24 µM and 12 µM
Escherichia coli K-12
  MIC: ≥ 40 µM

## CC[C@H](C)[C@H](NC(=O)[C@H](CCC(N)=O)NC(=O)CNC(=O)[C@H](CC(C)C)NC(=O)[C@@H](NC(=O)[C@H](CCCCN)NC(=O)[C@H](CCCN=C(N)N)NC(=O)[C@H](Cc1c[nH]c2ccccc12)NC(=O)[C@@H](N)CC(N)=O)[C@@H](C)CC)C(=O)N[C@@H](C)C(=O)N[C@@H](CO)C(=O)N[C@H](C(=O)NCC(=O)N[C@@H](C)C(=O)NCC(=O)N[C@@H](CC(C)C)C(=O)N[C@@H](CC(C)C)C(=O)NCC(=O)N[C@@H](CO)C(=O)N[C@@H](CC(C)C)C(=O)N[C@@H](CC(C)C)C(=O)N[C@@H](C)C(=O)NCC(=O)N[C@@H](Cc1ccc(O)cc1)C(=O)N[C@@H](CCC(=O)O)C(=O)O)C(C)C [NWRKILGQIASVGAGLLGSLLAGYE]
[10]
  MIC: 19.3 µM (≈ 50 µg/mL)
Salmonella typhimurium
  MIC: 19.3 µM (≈ 50 µg/mL)
[11]
  MIC: 19.3 µM (≈ 50 µg/mL)
[12]
  MIC: 9.66 µM (≈ 25 µg/mL)
[13]
  MIC: 19.3 µM (≈ 50 µg/mL)
[14]
  MIC: 19.3 µM (≈ 50 µg/mL)
[15]
  MIC: 19.3 µM (≈ 50 µg/mL)
[16]
  MIC: 19.3 µM (≈ 50 µg/mL)
[17]
  MIC: 4.83 µM (≈ 12.5 µg/mL)

## CC[C@H](C)[C@H](NC(=O)[C@@H]1CSSC[C@H](NC(=O)[C@@H](NC(=O)[C@@H](N)CCCN=C(N)N)[C@@H](C)CC)C(=O)N[C@@H](CCCN=C(N)N)C(=O)N[C@@H]([C@@H](C)CC)C(=O)N[C@@H](C(C)C)C(=O)N[C@@H](C(C)C)C(=O)N[C@@H]([C@@H](C)CC)C(=O)N[C@@H](CCCN=C(N)N)C(=O)N1)C(=O)N[C@@H](CCCN=C(N)N)C(N)=O [RICRIVVIRCIR]
[18]
  MIC: > 21.3 µM
[19]
  MIC: 5.33 µM (≈ 7.98 µg/mL)
[20]
  MIC: 10.7 µM (≈ 16 µg/mL)
Escherichia coli UB1005
  MIC: 2.67 µM (≈ 3.99 µg/mL)
[21]
  MIC: 5.33 µM (≈ 7.98 µg/mL)
[22]
  MIC: 21.3 µM (≈ 31.9 µg/mL)

## CC(C)C[C@H](NC(=O)[C@H](Cc1cnc[nH]1)NC(=O)CNC(=O)[C@H](C)NC(=O)[C@H](C)NC(=O)[C@@H](NC(=O)[C@H](Cc1ccccc1)NC(=O)[C@H](C)NC(=O)[C@H](CC(C)C)NC(=O)[C@H](CCCCN)NC(=O)[C@H](CCCCN)NC(=O)[C@H](CC(C)C)NC(=O)[C@H](CC(C)C)NC(=O)[C@H](CCC(=O)O)NC(=O)[C@H](CCCN=C(N)N)NC(=O)[C@H](Cc1c[nH]c2ccccc12)NC(=O)[C@@H](N)Cc1c[nH]c2ccccc12)[C@@H](C)O)C(=O)NCC(=O)N[C@@H](CO)C(=O)N[C@H](C(=O)N[C@@H](CC(C)C)C(=O)N[C@@H](C)C(=O)N[C@@H](C)C(=O)N[C@@H](CCCCN)C(=O)N[C@@H](CCC(N)=O)C(=O)N[C@@H](CO)C(=O)NCC(=O)N[C@@H](Cc1c[nH]c2ccccc12)C(=O)O)C(C)C [WWRELLKKLAFTAAGHLGSVLAAKQSGW]
[10]
  MIC: 16 µM (≈ 50 µg/mL)
Salmonella typhimurium
  MIC: 16 µM (≈ 50 µg/mL)
[11]
  MIC: 16 µM (≈ 50 µg/mL)
[12]
  MIC: 8 µM (≈ 25 µg/mL)
[13]
  MIC: 16 µM (≈ 50 µg/mL)
[14]
  MIC: 4 µM (≈ 12.5 µg/mL)
[15]
  MIC: 8 µM (≈ 25 µg/mL)
[16]
  MIC: 8 µM (≈ 25 µg/mL)
[17]
  MIC: 2 µM (≈ 6.25 µg/mL)

## CC(C)[C@H](NC(=O)[C@H](CCCCN)NC(=O)[C@H](C)NC(=O)[C@@H](NC(=O)[C@@H](NC(=O)[C@H](CCCN=C(N)N)NC(=O)[C@H](CCCN=C(N)N)NC(=O)[C@H](Cc1c[nH]c2ccccc12)NC(=O)[C@@H](N)Cc1c[nH]c2ccccc12)[C@@H](C)O)C(C)C)C(=O)N[C@@H](CCCN=C(N)N)C(=O)N[C@@H](CC(N)=O)C(=O)N[C@@H](C)C(=O)NCC(=O)N[C@@H](CCCN=C(N)N)C(=O)N[C@@H](CCCCN)C(N)=O [WWRRTVAKVRNAGRK]
[2]
  MIC: 100 µM (≈ 188 µg/mL)
[4]
  MIC: 6.3 µM (≈ 11.9 µg/mL)
[5]
  MIC: 12.5 µM (≈ 23.5 µg/mL)
[6]
  MIC: 25 µM (≈ 47.1 µg/mL)
[7]
  MIC: 0.4 µM (≈ 0.753 µg/mL)
Aureobasidium pullulans
  MIC: ≥ 100 µM
